Results from patent US8008488B2 (Abbott GmbH & Co. KG, priority 2003, dated 2011).

Legend:
[1] = target: T1, human dopamine D3 receptors (Homo sapiens, UniProt P35462); test: Dopamine D3 receptor binding, displacement of [125I]-iodosulpride; conditions: membranes from HEK-293 cells with stably expressed human D3 receptors, 0.1 nM [125I]-iodosulpride
T1 construct: expressed in transfected cells
Experimental: (§1) The substance to be tested was dissolved either in methanol/Chremophor® (BASF-AG) or in dimethyl sulfoxide and then diluted with water to the desired concentration.
(§2) Triplicate mixtures were carried out.
The incubation buffer contained 50 mM Tris, 120 mM NaCl, 5 mM KCl, 2 mM CaCl2, 2 mM MgCl2 and 0.1% bovine serum albumin, 10 μM quinolone, 0.1% ascorbic acid (prepared fresh each day). The buffer was adjusted to pH 7.4 with HCl.
(§3) Measurement and Evaluation:
(§4) After incubation at 25° C. for 60 minutes, the mixtures were filtered under vacuum through Whatman GF/B glass fiber filters using a cell harvester. The filters were transferred by a filter transfer system into scintillation vials. After addition of 4 ml of Ultima Gold® (Packard), the samples were shaken for one hour and then the radioactivity was calculated in a beta counter (Packard, Tricarb 2000 or 2200CA). The cp values were converted into dpm by means of a standard quench series with the aid of the instrument's own program.
(§5) Evaluation of the inhibition plots took place by iterative nonlinear regression analysis using the Statistical Analysis System (SAS) similar to the “LIGAND” program described by Munson and Rodbard.

[2] = target: T2, human dopamine D2L receptors (long isoform) (Homo sapiens, UniProt P14416); test: Dopamine D2L receptor binding, displacement of [125I]-iodospiperone; conditions: *Ki(D2L)/Ki(D3), HEK-293 membranes, 0.01 nM [125I]-iodospiperone
T2 construct: expressed in transfected cells
T2 sequence (P14416 whole entry, canonical isoform): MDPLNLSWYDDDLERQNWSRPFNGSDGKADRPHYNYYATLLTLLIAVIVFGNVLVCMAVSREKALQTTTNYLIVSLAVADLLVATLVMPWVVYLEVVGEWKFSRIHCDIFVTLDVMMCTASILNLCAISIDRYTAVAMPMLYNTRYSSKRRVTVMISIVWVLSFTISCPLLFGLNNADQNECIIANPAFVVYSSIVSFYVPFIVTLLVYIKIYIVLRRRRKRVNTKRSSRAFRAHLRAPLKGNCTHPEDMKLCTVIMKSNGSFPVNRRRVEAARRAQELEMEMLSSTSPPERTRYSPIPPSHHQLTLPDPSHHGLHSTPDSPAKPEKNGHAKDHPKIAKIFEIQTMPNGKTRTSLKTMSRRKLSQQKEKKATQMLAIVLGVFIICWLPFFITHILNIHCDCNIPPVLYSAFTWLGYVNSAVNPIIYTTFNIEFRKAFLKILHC
Experimental: as §1, §2
The incubation buffer contained 50 mM Tris, 120 mM NaCl, 5 mM KCl, 2 mM CaCl2, 2 mM MgCl2 and 0.1% bovine serum albumin. The buffer was adjusted to pH 7.4 with HCl.
as §3, §4, §5

T1 sequence (P35462 whole entry): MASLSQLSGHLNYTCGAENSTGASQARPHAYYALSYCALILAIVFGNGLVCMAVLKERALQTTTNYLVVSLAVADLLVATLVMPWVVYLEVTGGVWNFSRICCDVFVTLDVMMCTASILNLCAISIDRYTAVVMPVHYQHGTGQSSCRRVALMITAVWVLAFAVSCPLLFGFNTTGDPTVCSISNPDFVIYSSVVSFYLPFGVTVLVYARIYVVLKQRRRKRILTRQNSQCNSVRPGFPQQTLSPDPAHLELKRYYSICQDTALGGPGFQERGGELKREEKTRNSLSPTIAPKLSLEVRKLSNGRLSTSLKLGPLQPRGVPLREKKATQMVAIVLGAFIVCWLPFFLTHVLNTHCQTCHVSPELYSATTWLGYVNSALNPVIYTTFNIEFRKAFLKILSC

Ki [1] [nM] | Selectivity D3 vs. D2L* [2] | Molecule
2.97 | 65 | CCCc1cc(N2CCN(C(C)CCCn3cc(C)c(=O)[nH]c3=O)CC2)nc(C(C)(C)C)n1 (single isomer, unassigned; (+)) [Example 63, (+)-1-{4-[4-(2-tert-Butyl-6-propylpyrimidin-4-yl)piperazin-1-yl]pentyl}-5-methyl-1H-pyrimidine-2,4-dione]
2.57 | 57 | Cc1cn(CC(C)CCN2CCN(c3cc(C(F)(F)F)nc(C(C)(C)C)n3)CC2)c(=O)[nH]c1=O (single isomer, unassigned; (-)) [Example 64, (−)-1-{4-[4-(2-tert-Butyl-6-trifluoromethylpyrimidin-4-yl)piperazin-1-yl]-2-methylbutyl}-5-methyl-1H-pyrimidine-2,4-dione]
3.03 | 103 | CCCc1cc(N2CCN(C(C)CCCn3cc(C)c(=O)[nH]c3=O)CC2)nc(C(C)(C)C)n1 (single isomer, unassigned; (-)) [Example 76, (−)-1-{4-[4-(2-tert-Butyl-6-propylpyrimidin-4-yl)piperazin-1-yl]pentyl}-5-methyl-1H-pyrimidine-2,4-dione]
14.5 | 64 | CC(C)(C)c1nc(N2CCN(CCCCn3ccc(C(F)(F)F)nc3=O)CC2)cc(C(F)(F)F)n1.Cl [Example 15, 1-[2-tert-Butyl-6-(trifluoromethyl)pyrimidin-4-yl]-4-{4-[2-oxo-4-(trifluoromethyl)pyrimidin-1 (2H)-yl]butyl}piperazin-4-ium chloride]
2.99 | 201 | CC(C)(C)c1nc(N2CCN(CCCCn3cc(F)c(=O)[nH]c3=O)CC2)cc(C(F)(F)F)n1.Cl [Example 16, 1-[2-tert-Butyl-6-(trifluoromethyl)pyrimidin-4-yl]-4-[4-(5-fluoro-2,4-dioxo-3,4-dihydro-pyrimidin-1 (2H)-yl)butyl]piperazin-4-ium chloride]
0.71 | 134 | Cc1cn(CCCCN2CCN(c3cc(C4CC4)nc(C(C)(C)C)n3)CC2)c(=O)nc1O [Example 17, 1-{4-[4-(2-tert-Butyl-6-cyclopropylpyrimidin-4-yl)piperazin-1-yl]butyl}-4-hydroxy-5-methylpyrimidin-2(1H)-one]
4.78 | 99 | CC(C)(C)c1nc(N2CCN(CCCCn3cc(C#N)c(=O)[nH]c3=O)CC2)cc(C(F)(F)F)n1 [Example 18, 1-(4-{4-[2-tert-Butyl-6-(trifluoromethyl)pyrimidin-4-yl]piperazin-1-yl}butyl)-2,4-dioxo-1,2,3,4-tetrahydropyrimidine-5-carbonitrile]
1.44 | 96 | CC(C)(C)c1ccn(CCCCN2CCN(c3cc(C4CC4)nc(C(C)(C)C)n3)CC2)c(=O)n1 [Example 19, 4-tert-Butyl-1-{4-[4-(2-tert-butyl-6-cyclopropylpyrimidin-4-yl)piperazin-1-yl]butyl}pyrimidin-2(1H)-one]
– | 34 | Cc1cn(CCCCN2CCN(c3cc(C(F)(F)F)nc(C(C)(C)C)n3)CC2)c(=O)n(C)c1=O [Example 25, 1-(4-{4-[2-tert-Butyl-6-(trifluoromethyl)pyrimidin-4-yl]piperazin-1-yl}butyl)-3,5-dimethylpyrimidine-2,4(1H,3H)-dione]
– | 52 | Cn1c(=O)ccn(CCCCN2CCN(c3cc(C(F)(F)F)nc(C(C)(C)C)n3)CC2)c1=O [Example 27, 1-(4-{4-[2-tert-Butyl-6-(trifluoromethyl)pyrimidin-4-yl]piperazin-1-yl}butyl)-3-methylpyrimidine-2,4(1H,3H)-dione]

Second part, the molecule before the results:

Molecule | Ki [1] [nM] | Selectivity D3 vs. D2L* [2]
1-{4-[4-(2,3-Dichlorophenyl)piperazin-1-yl]butyl}-5-methyl-1H-pyrimidine-2,4-dione [Example 82] | 0.31 | 54
1-{4-[4-(2-tert-Butyl-6-propylpyrimidin-4-yl)piperazin-1-yl]butyl}-4-methyl-1H-pyrimidin-2-one [Example 69] | 1.8 | 54
Cc1cn(CCCCN2CCN(c3cc(C(F)(F)F)nc(C(C)(C)C)n3)CC2)c(=O)nc1S [Example 2, 1-(4-{4-[2-tert-Butyl-6-(trifluoromethyl)pyrimidin-4-yl]piperazin-1-yl}butyl)-4-mercapto-5-methylpyrimidin-2(1H)-one] | 3.23 | 88
Cc1cn(CCCCN2CCN(c3cc(C(F)(F)F)nc(C(C)(C)C)n3)CC2)c(=O)nc1O.Cl [Example 5, 1-[2-tert-Butyl-6-(trifluoromethyl)pyrimidin-4-yl]-4-[4-(4-hydroxy-5-methyl-2-oxopyrimidin-1 (2H)-yl)butyl]piperazin-4-ium chloride] | 1.3 | 246
Cc1cnc(=O)n(CCCCN2CCN(c3cc(C(F)(F)F)nc(C(C)(C)C)n3)CC2)c1 [Example 6, 1-(4-{4-[2-tert-Butyl-6-(trifluoromethyl)pyrimidin-4-yl]piperazin-1-yl}butyl)-5-methylpyrimidin-2(1H)-one] | 31.2 | 35
Cc1ccn(CCCCN2CCN(c3cc(C(F)(F)F)nc(C(C)(C)C)n3)CC2)c(=O)n1 [Example 8, 1-(4-{4-[2-tert-Butyl-6-(trifluoromethyl)pyrimidin-4-yl]piperazin-1-yl}butyl)-4-methylpyrimidin-2(1H)-one] | 4.4 | 71
Cc1cn(CCCCN2CCN(c3cc(C(C)(C)C)nc(C(C)(C)C)n3)CC2)c(=O)nc1O [Example 9, 1-{4-[4-(2,6-ditert-Butylpyrimidin-4-yl)piperazin-1-yl]butyl}-4-hydroxy-5-methylpyrimidin-2(1H)-one] | 0.74 | 53
CCCc1cc(N2CCN(CCCCn3cc(C)c(O)nc3=O)CC2)nc(C(C)(C)C)n1 [Example 10, 1-{4-[4-(2-tert-Butyl-6-propylpyrimidin-4-yl)piperazin-1-yl]butyl}-4-hydroxy-5-methylpyrimidin-2(1H)-one] | 1.75 | 97
Cc1cn(CCCCN2CCN(c3cc(C(F)(F)F)nc(C(C)(C)C)n3)CC2)c(=O)nc1NCc1ccccc1 [Example 11, 4-(Benzylamino)-1-(4-{4-[2-tert-butyl-6-(trifluoromethyl)pyrimidin-4-yl]piperazin-1-yl}butyl)-5-methylpyrimidin-2(1H)-one] | 3.14 | 65
Cc1cn(CCCCN2CCN(c3cc(C(F)(F)F)nc(C(C)(C)C)n3)CC2)c(=O)nc1N(C)C.Cl [Example 12, 1-[2-tert-Butyl-6-(trifluoromethyl)pyrimidin-4-yl]-4-{4-[4-(dimethylamino)-5-methyl-2-oxopyrimidin-1 (2H)-yl]butyl}piperazin-4-ium chloride] | 3.44 | 63
CC(C)(C)c1nc(N2CCN(CCCCn3ccc(O)nc3=O)CC2)cc(C(F)(F)F)n1 [Example 13] | 1.88 | 104
CC(C)(C)c1ccn(CCCCN2CCN(c3cc(C(F)(F)F)nc(C(C)(C)C)n3)CC2)c(=O)n1 [Example 14, 4-tert-Butyl-1-(4-{4-[2-tert-butyl-6-(trifluoromethyl)pyrimidin-4-yl]piperazin-1-yl}butyl)pyrimidin-2(1H)-one] | 2.62 | 82
